# Results taken from US20100254940A1, “Compositions and Methods for Regulating an Immune Response in a Subject” (INNATE PHARMA, S.A., priority 2002, published 2010).
# What was measured:
# γδ T cell = γδ T cell amplification from human PBMCs, counting γδ T cell using flow cytometry (given as in vivo EC50); assay type: cell-based; settings: γδ T cell amplification from human PBMCs, flow cytometry count
# Protocol: The biological activity of γδ T cell amplification from human PBMCs was assessed by counting γδ T cell using flow cytometry.
# In vitro proliferation assays and in vitro TNFα release assay are performed essentially as described in Example 3.
# 786-0 cells lines = assay: Nod-SCID/tumor model, human PBMC stimulated in vivo with BrHPP; design: species or system Nod-SCID mice
# Protocol: Preliminary studies to set up the Nod-SCID/tumor and to stimulate human MNC with BrHPP in the Nod-SCID were carried out as follows: • The following renal tumor cells lines purchased from the ATCC (786-0, Kaci1, G401 and G402) were used for the establishment of the model. 786-0 and Kaci-1 cells lines were renal clear cell carcinoma (RCC), G401 rhabdoid and G402 leimyeloblastoma.
# 8-12 weeks Nod-SCID mice were used as recipient of the cells lines.
# Each mouse received, at the left flank's upper part, 2-5×10^6 cells by subcutaneous injection at day D0. The appearance and the growing of the tumors evolution were checked weekly.
# The tumors appearance and development depend on the cell line and on the number of engrafted cells. For example, after the engraftment of 2×10^6 cells, 3 to 4 weeks were needed for the 786-O and Kac1-1, while 2 weeks were needed for the G401 and 402. • At day 0, mice were injected IP 50*10^6 PBMC (collected from healthy donor, etablissement français du sang), then stimulated (IP) 40 mg/kg BrHPP mixed with 1000 IU of IL2. At D5 and each every three days, mice were treated with 500 UI of IL2. Human γδ T cells were developed in the peritoneal cavity of Nod-SCID/human (hu) BrHPP treated mice.
# Taking advantage of the tumoral development in the Nod-SCID mice and the in vivo stimulation of the human γδ T cells, the anti-tumoral effect of the γδ T cells was studied in vivo. The tumoral model was established by engrafting 2×10^6 of 786-0 cells lines, three weeks later, when the volume of the solid tumor reached more than >30 mm3 (calculated with the formula A^2×B/2 where A and B represent respectively the length and breadth of the tumor). Mice, randomized, received IP PBMC and treated for the stimulation with BrHPP. Several groups were constituted:
# A—Negative control group: Mice in the group received only tumoral cell line
# B—PBMC group: Mice were injected IP with 50×10^6 PBMC
# C—Study group: Mice after receiving the 50×10^6 PBMC were treated with BrHPP and
# For each group, parameters were observed as follows: • Weekly check of the tumor size and volume • Weekly phenotype of human T cells in the peritoneal cavity and blood collected cells for the percentage of human γδ T cells versus ab human T cells. • Serological TNF and INF check • At sacrifice: • 1—phenotype study of the homing of human leukocytes cells and their phenotype (IP, liver, lung, spleen, bone morrow, blood, thymus and tumor). • 2—Immunohistochemistry (IHC) study in the tumor of the recipient mice.
substance,measurement,setting,value
3-(bromomethyl)-3-butanol-1-yl-diphosphate [BrHPP],EC50,γδ T cell,~1 nM
same,mice in which the tumor was not totally cleared,786-0 cells lines; PBMC + BrHPP + IL2,4 of 10
same,tumor size,786-0 cells lines; PBMC/BrHPP (40 mg/kg IP) and IL2 treated group,from day 7 onwards the tumor size shrank
same,tumor growth where tumor not totally cleared,786-0 cells lines; after 12 weeks,tumor growth was stopped and the tumor size stayed stable
same,human γδ cells in the tumor,"786-0 cells lines; at sacrifice, 4 weeks",human γδ cells were present only in the BrHPP treated group
same,reappearance of tumor,"786-0 cells lines; mice where the tumor was cleared, 12 weeks after the treatment",no reappearance of new tumor was observed
same,human γδ T cell presence in the peritoneal cavity,786-0 cells lines; weekly IP phenotype,human γδ T cell presence only in the BrHPP treated mice
